The target in test [1] is DapA and DapB (purified enzymes) (Mycobacterium tuberculosis, UniProt P9WP25). It is filed as biochemical. Particulars: coupled enzyme assay, Michaelis-Menten plot.
Another test concerns mycobacterial DapB. On the set-up: method as in PMID 12962488. Conditions: cited from earlier work.
For test [2], the system named is M. tb H37Rv inside THP-1 macrophages. The experiment in a line: Intracellular inhibition assay in THP-1 macrophages. Conditions: Mycobacterium tuberculosis, 120 h, CFU enumeration after 5 days of infection. It is filed as cell-based.
Another test concerns the target M. tb DapB (Mycobacterium tuberculosis, UniProt P9WP23). The experiment in a line: Dihydrodipicolinate reductase (DapB)-coupled enzymatic assay. The class given is biochemical.
In test [3] the test system is M. tb H37Rv. Put plainly: M. tb whole cell growth inhibition by resazurin microtiter assay. It is filed as cell-based, Mycobacterium tuberculosis.
The test system of test [4] is M. tb H37Rv. The experiment in a line: Checkerboard assay of B59 with B20. It is filed as cell-based, Mycobacterium tuberculosis.

Converted amounts (≈) assume the structure as drawn. Some results are limits rather than exact numbers.

M. tb DapB, sequence (P9WP23 whole entry, looked up): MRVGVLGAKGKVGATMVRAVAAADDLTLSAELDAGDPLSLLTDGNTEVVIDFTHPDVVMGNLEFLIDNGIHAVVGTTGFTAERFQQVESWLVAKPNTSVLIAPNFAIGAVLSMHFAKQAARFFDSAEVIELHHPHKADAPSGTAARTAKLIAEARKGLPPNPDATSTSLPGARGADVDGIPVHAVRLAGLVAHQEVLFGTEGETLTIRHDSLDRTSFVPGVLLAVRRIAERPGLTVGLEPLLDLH
DapA and DapB (purified enzymes), sequence (P9WP25 whole entry, looked up): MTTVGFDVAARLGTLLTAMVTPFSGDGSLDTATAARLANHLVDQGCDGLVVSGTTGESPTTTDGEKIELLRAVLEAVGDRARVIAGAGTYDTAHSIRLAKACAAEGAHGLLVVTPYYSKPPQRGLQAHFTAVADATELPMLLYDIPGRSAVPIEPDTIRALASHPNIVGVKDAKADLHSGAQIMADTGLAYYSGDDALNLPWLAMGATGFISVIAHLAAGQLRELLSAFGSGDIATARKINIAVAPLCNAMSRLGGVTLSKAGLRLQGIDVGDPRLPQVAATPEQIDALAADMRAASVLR
Protocol for M. tb DapB: The enzymatic assay of DapB is a coupled assay which requires the upstream enzyme DapA. The formation of tetrahydrodipicolinate by DapB was measured by monitoring conversion of NADPH to NADP^+ spectrophotometrically at 340 nm. The substrate of DapB, i.e., 2,4-dihydrodipicolinic acid, was prepared enzymatically through condensation of Aspartate Semialdehyde [(S)-ASA] and sodium pyruvate by DapA. The standard assay was performed in 50 mM sodium phosphate buffer (pH 7.5) consisting of 400 µM (S)-ASA, 160 µM NADPH, 500 µM sodium pyruvate, 3 µg DapB, and 5 µg DapA in a total reaction volume of 100 µL. […] The decrease in the absorbance of NADPH corresponding to the consumption of substrate was monitored at 340 nm after incubation for 10 minutes at room temperature. […] The activity of DapB in the presence of compounds was measured similarly; however, the enzyme was pre-incubated with the compounds for 10 minutes at 37°C. The percent activity for the samples in the presence of inhibitors was calculated by using a two-step method. Firstly, the absorbance values at 340 nm for each test sample (with or without the inhibitor) were normalized with the negative control (no substrate control). Subsequently, the percent activity was calculated by using the formula (normalized A340nm of inhibitor sample/normalized A340nm of no inhibitor sample) × 100. […]

As for `N[C@@H](CC=O)C(=O)O` [ASA, L-aspartate-β-semialdehyde], the Km in test [1] was found to be 345 µM.

For the compound `NC(=O)C1=CN([C@@H]2O[C@H](COP(=O)(O)OP(=O)(O)OC[C@H]3O[C@@H](n4cnc5c(N)ncnc54)[C@H](O)[C@@H]3O)[C@@H](O)[C@H]2O)C=CC1` [NADH], the Km with mycobacterial DapB is 3.2 ± 0.4 µM.

With `NC(=O)C1=CN([C@@H]2O[C@H](COP(=O)(O)OP(=O)(O)OC[C@H]3O[C@@H](n4cnc5c(N)ncnc54)[C@H](OP(=O)(O)O)[C@@H]3O)[C@@H](O)[C@H]2O)C=CC1` [NADPH], the Km with mycobacterial DapB is 11.8 ± 1.5 µM.

For `CC(=O)C(=O)O` [sodium pyruvate], in test [1], the Km is 125 µM.

As for `COC(=O)CCCc1nc2ccccc2nc1N=Nc1ccccc1` [Compound B59, 4-(3-Phenylazoquinoxalin-2-yl) butanoic acid methyl ester], the MIC90 in test [2] was 73 µg/mL (≈ 218 µM). Moreover, the IC50 against M. tb DapB (IC50 exhibited by compounds in biochemical assay, DapB enzymatic activity, compounds 10-100 µg/mL) was 32.9 µM. In addition, the inhibition at 100 µg/mL at M. tb DapB (at 100 µg/mL, read-out: inhibition of DapB enzyme activity) is > 80%. The “MIC99 exhibited by compounds against M. tb growth” value in the test on M. tb H37Rv [3] (M. tb H37Rv, 7 days, resazurin and drop plating) is 20 µg/mL (≈ 59.8 µM). Also, the MIC99 in the test with M. tb H37Rv [3] (Mycobacterium tuberculosis, 168 h, M. tb H37Rv, 7 days, resazurin and drop plating, read-out: MIC99 exhibited by compounds against M. tb growth) came to 20 µg/mL (≈ 59.8 µM). For the same compound, in the test with M. tb H37Rv [3] (at 0.5X MIC99 and 0.25X MIC99), the “effect on bacterial growth by CFU enumeration” value is given as “inhibition of the bacterial growth”. Further, the “fractional inhibitory concentration (FIC)” value with M. tb H37Rv [4] (MIC99 in combination / MIC99 alone) is listed as 0.062. Besides, the “MIC99 of B59 in combination” value in the test on M. tb H37Rv [4] (in the presence of 20 µg/mL of compound B20) came out at 1.25 µg/mL.

One may read the Km as the concentration of substrate that gives half-maximal velocity. One may read the IC50 as the midpoint of a concentration-inhibition curve. As usually defined, the inhibition is the percentage by which the read-out fell short of the control. By MIC99 is commonly meant the lowest concentration that inhibits either 99% of growth or 99% of the strains tested, depending on the study.

Values taken from paper PMC10714930, “In silico virtual screening for the identification of novel inhibitors against dihydrodipicolinate reductase (DapB) of Mycobacterium tuberculosis, a key enzyme of diaminopimelate pathway” (Microbiology Spectrum, 2023).
